The record followed here is patent US9328106B2, “Cyclic ether pyrazol-4-yl-heterocyclyl-carboxamide compounds and methods of use” (Genentech, Inc., priority 2012, dated 2016).

Each structure is given as a SMILES string. pKi: −log10 of the molar value.

The target of one assay is PIM1 (Homo sapiens (Human), UniProt P11309). The experiment in a line: biochemical. The assay is classed as biochemical.
PIM1, sequence (P11309 whole entry): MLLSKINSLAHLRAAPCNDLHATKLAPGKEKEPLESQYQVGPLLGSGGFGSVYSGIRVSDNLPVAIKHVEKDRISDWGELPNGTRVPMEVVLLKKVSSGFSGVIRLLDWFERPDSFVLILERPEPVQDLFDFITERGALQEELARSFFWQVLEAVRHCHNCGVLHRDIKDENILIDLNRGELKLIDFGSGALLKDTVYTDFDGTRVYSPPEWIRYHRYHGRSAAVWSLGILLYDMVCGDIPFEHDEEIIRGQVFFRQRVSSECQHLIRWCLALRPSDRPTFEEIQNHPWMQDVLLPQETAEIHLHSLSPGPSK
Conditions: not given
As a reminder, the pKi is the Ki on a negative log10 scale, so that one unit is a factor of ten. As for `[2H]C([2H])([2H])O[C@H]1CO[C@@H](c2c(NC(=O)c3nc(-c4c(F)cccc4F)sc3N)cnn2C)CC[C@@H]1N` [Example 180, 5-Amino-N-[5-[(2R,5S,6R)-5-amino-6-(trideuteriomethoxy)oxepan-2-yl]-1-methyl-pyrazol-4-yl]-2-(2,6-difluorophenyl)thiazole-4-carboxamide], the pKi was 10.77.

Staying with this assay, now noted: 20 pM PIM1, 1 μM FAM-peptide, 10 μM ATP, 90 minutes at room temperature; read-out: PIM1 LC3K (KI).
As to `Cc1c(-c2nc(C(=O)Nc3cnn(C)c3[C@@H]3CC[C@@H](N)[C@@H](F)CO3)c(N)s2)cnn1C` [Example 255, 5-amino-N-(5-((2S,5R,6R)-5-amino-6-fluorooxepan-2-yl)-1-methyl-1H-pyrazol-4-yl)-2-(1,5-dimethyl-1H-pyrazol-4-yl)thiazole-4-carboxamide], the pKi is 11.15.
On to `Cn1ncc(NC(=O)c2ccc(F)c(-c3c(F)cc(C4(O)COC4)cc3F)n2)c1[C@@H]1CC[C@@H](N)[C@H](F)CO1` [Example 193, N-(5-((2S,5R,6S)-5-amino-6-fluorooxepan-2-yl)-1-methyl-1H-pyrazol-4-yl)-6-(2,6-difluoro-4-(3-hydroxyoxetan-3-yl)phenyl)-5-fluoropicolinamide], for which the pKi was 10.47.
For `CC(=O)Nc1ccc(-c2nc(C(=O)Nc3cnn(C)c3[C@@H]3CC[C@@H](N)[C@H](F)CO3)cs2)cn1` [Example 386, 2-(6-acetamido-3-pyridyl)-N-[5-[(2S,5R,6S)-5-amino-6-fluoro-oxepan-2-yl]-1-methyl-pyrazol-4-yl]thiazole-4-carboxamide], the pKi was 9.41.
As to `COc1ccc(-c2nc(C(=O)Nc3cnn(C)c3[C@@H]3CC[C@@H](N)[C@H](F)CO3)cs2)c(F)c1` [Example 293, N-(5-((2S,5R,6S)-5-amino-6-fluorooxepan-2-yl)-1-methyl-1H-pyrazol-4-yl)-2-(2-fluoro-4-methoxyphenyl)thiazole-4-carboxamide], the pKi is 10.23.
On to `Cn1ncc(NC(=O)c2csc(-c3cccc(F)c3F)n2)c1[C@@H]1CC[C@@H](N)[C@H](F)CO1` [Example 306, N-(5-((2S,5R,6S)-5-amino-6-fluorooxepan-2-yl)-1-methyl-1H-pyrazol-4-yl)-2-(2,3-difluorophenyl)thiazole-4-carboxamide], for which the pKi is 10.36.
On to `COc1cc(F)c(-c2nc(C(=O)Nc3cnn(C)c3[C@@H]3CC[C@@H](N)[C@H](F)CO3)cs2)c(F)c1` [Example 296, N-(5-((2S,5R,6S)-5-amino-6-fluorooxepan-2-yl)-1-methyl-1H-pyrazol-4-yl)-2-(2,6-difluoro-4-methoxyphenyl)thiazole-4-carboxamide], for which the pKi is 10.51.
Regarding `CCc1ccc(F)c(-c2nc(C(=O)Nc3cnn(C)c3[C@@H]3CC[C@@H](N)[C@H](F)CO3)cs2)c1` [Example 307, N-(5-((2S,5R,6S)-5-amino-6-fluorooxepan-2-yl)-1-methyl-1H-pyrazol-4-yl)-2-(5-ethyl-2-fluorophenyl)thiazole-4-carboxamide], the pKi is 10.09.
On the same count and under the same terms, the value for `Cn1ncc(NC(=O)c2csc(-c3c(F)cccc3F)n2)c1[C@@H]1CC[C@@H](N)[C@@H](O)CO1` [Example 350, N-(5-((2S,5R,6R)-5-amino-6-hydroxyoxepan-2-yl)-1-methyl-1H-pyrazol-4-yl)-2-(2,6-difluorophenyl)thiazole-4-carboxamide] was < 6.18; that for `COCCOc1cc(F)c(-c2nc(C(=O)Nc3cnn(C)c3[C@@H]3CC[C@@H](N)[C@H](O)CO3)ccc2F)c(F)c1` [Example 191, N-(5-((2S,5R,6S)-5-Amino-6-hydroxyoxepan-2-yl)-1-methyl-1H-pyrazol-4-yl)-6-(2,6-difluoro-4-(2-methoxyethoxy)phenyl)-5-fluoropicolinamide] was 10.25.
Regarding `Cn1ncc(NC(=O)c2nc(-c3cccc(F)c3C(F)(F)F)sc2N)c1[C@@H]1CC[C@@H](N)[C@H](F)CO1` [Example 336, 5-amino-N-(5-((2S,5R,6S)-5-amino-6-fluorooxepan-2-yl)-1-methyl-1H-pyrazol-4-yl)-2-(3-fluoro-2-(trifluoromethyl)phenyl)thiazole-4-carboxamide], the pKi is 9.73.
Still for that read-out and setting: with `Cn1ncc(NC(=O)c2nc(-c3c(F)cccc3F)sc2N)c1C1CC(F)C(N)CCO1` (stereo not drawn) [Example 140, 5-amino-N-(5-(5-amino-4-fluorooxepan-2-yl)-1-methyl-1H-pyrazol-4-yl)-2-(2,6-difluorophenyl)thiazole-4-carboxamide] the figure was 9.33; with `Cn1ncc(NC(=O)c2ccc(F)c(-c3c(F)cc(OCCO)cc3F)n2)c1[C@@H]1CC[C@@H](N)[C@@H](F)CO1` [Example 190, N-(5-((2S,5R,6R)-5-Amino-6-fluorooxepan-2-yl)-1-methyl-1H-pyrazol-4-yl)-6-(2,6-difluoro-4-(2-hydroxyethoxy)phenyl)-5-fluoropicolinamide], 10.85.
Turning to `Cc1nn(C)cc1-c1nc(C(=O)Nc2cnn(C)c2[C@@H]2CC[C@@H](N)[C@@H](F)CO2)c(N)s1` [Example 254, 5-amino-N-(5-((2S,5R,6R)-5-amino-6-fluorooxepan-2-yl)-1-methyl-1H-pyrazol-4-yl)-2-(1,3-dimethyl-1H-pyrazol-4-yl)thiazole-4-carboxamide], the pKi was 10.59.
Consider `COc1cc(F)c(-c2nc(C(=O)Nc3cnn(C)c3[C@@H]3CC[C@@H](N)[C@@H](OC)CO3)cs2)c(F)c1` [Example 265, N-(5-((2S,5R,6R)-5-amino-6-methoxyoxepan-2-yl)-1-methyl-1H-pyrazol-4-yl)-2-(2,6-difluoro-4-methoxyphenyl)thiazole-4-carboxamide], for which the pKi is 10.47.
Take `Cn1ncc(NC(=O)c2csc(-c3c(F)cc(O[C@@H]4CCOC4)cc3F)n2)c1[C@@H]1CC[C@@H](N)[C@H](F)CO1` [Example 217]: the pKi was 11.52.
On to `CCC(=O)c1cc(F)c(-c2nc(C(=O)Nc3cnn(C)c3[C@@H]3CC[C@@H](N)[C@H](F)CO3)ccc2F)c(F)c1` [Example 205, N-(5-((2S,5R,6S)-5-amino-6-fluorooxepan-2-yl)-1-methyl-1H-pyrazol-4-yl)-6-(2,6-difluoro-4-propionylphenyl)-5-fluoropicolinamide], for which the pKi is 10.47.
For `Cn1ncc(NC(=O)c2csc(-c3cccc(OCc4ccccc4)c3)n2)c1[C@@H]1CC[C@@H](N)[C@H](F)CO1` [Example 401, N-[5-[(2S,5R,6S)-5-amino-6-fluoro-oxepan-2-yl]-1-methyl-pyrazol-4-yl]-2-(3-benzyloxyphenyl)thiazole-4-carboxamide], the pKi is 9.35.
With `Cn1ncc(NC(=O)c2ccc(F)c(-c3c(F)cc(OC4CCOCC4)cc3F)n2)c1[C@@H]1CC[C@@H](N)[C@@H](F)CO1` [Example 188, N-(5-((2S,5R,6R)-5-Amino-6-fluorooxepan-2-yl)-1-methyl-1H-pyrazol-4-yl)-6-(2,6-difluoro-4-((tetrahydro-2H-pyran-4-yl)oxy)phenyl)-5-fluoropicolinamide], the negative logarithm of the Ki (pKi) is 10.52.
With `Cn1ncc(NC(=O)c2csc(-c3c(F)ccc(F)c3F)n2)c1[C@@H]1CC[C@@H](N)[C@H](F)CO1` [Example 243, N-(5-((2S,5R,6S)-5-amino-6-fluorooxepan-2-yl)-1-methyl-1H-pyrazol-4-yl)-2-(2,3,6-trifluorophenyl)thiazole-4-carboxamide], the pKi was 10.33.
On the same count and under the same terms, the value for `Cn1ncc(NC(=O)c2nc(-c3c(F)cccc3F)sc2N)c1C1=CCCCO1` [Example 102, 5-amino-2-(2,6-difluorophenyl)-N-[5-(3,4-dihydro-2H-pyran-6-yl)-1-methyl-pyrazol-4-yl]thiazole-4-carboxamide] was 9.39.
